# From patent US12507721B2, “Ready-to-use parenteral nutrition formulation” (BAXTER INTERNATIONAL INC., priority 2021, dated 2025)
# Marks after values point to notes of the source that are not given here.
# Assays:
# Assay type in all cases: physicochemical
# [1] = Impact of pH on the stability of vitamin B12; conditions: 6 months at 40° C.
# [2] = Vitamin B12 stability in dedicated formulations (Batches 1 to 4); conditions: aqueous formulation, optimized conditions (oxygen content, pH, sterilization method)
# Description: Table 16 provides for the various batches which were prepared for testing the stability of vitamin B12 in each setting.
# For Batches 1 to 3, concentrated emulsions (40%) were diluted with a factor of 8. The vitamin bulk was used to dilute the emulsion from 40% to 5%. The pH was adjusted at 5.9 with a citrate buffer for Batch 1 and a phosphate buffer for Batch 2. An adjustment to pH 6.5 was performed for Batch 3 with HCl. The final volume was provided by adding Milli-Q water. In case of Batches 2 and 3, EDTA and PVP K17 were added before filling up to the final volume. The emulsions were filtered with a 4.5 μm filter before filling. Flushing of the solutions using N2 was performed before starting the filling of each batch. The Batches were manufactured under exclusion of light and oxygen. The dissolved oxygen was measured at the beginning of the filling to ensure it remains <1.0 ppm. The headspace volume was set as small as possible (≤10 mL) and the filling volume limits was 100 mL per monobag, ±2 mL. To avoid any risk of vitamin degradation, an aluminum overpouch was used to protect each monobag. An oxygen absorber was placed between primary bag and overpouch. Seals were inspected before sterilization rack loading. Four samples per Batch were kept unsterilized for Batches 1 through 4. […]
# [3] = Vitamin B12 stability in mixed micelle solutions; conditions: both mixed micelle solutions (Vit A, Vit B); steam or water spray sterilization
# Description: For testing the stability of vitamin B12 in formulation as they are typically used in parenteral nutrition, a 35% glucose solution, a 14.2% amino acid formulation such as found, for example, in Olimel N9E (Baxter), and a 20% lipid emulsion such as found in Clinoleic 20% (Baxter) were supplemented with different vitamin combinations which always included vitamin B12. KCl was added into the glucose solution to understand if it has an effect on the stability of vitamin B12. Vitamin B1 was introduced as thiamin HCl. Ascorbyl palmitate was added to the lipid emulsion formulation as a stabilizing agent due to its antioxidant properties. In addition, two separate micellar solutions (“Vit A” and “Vit B”, see Table 9) comprising certain vitamins to be assessed with regard to degradation (B3, B6, B8, B9, B12, C) but formulated with different excipients as micellization agents were tested for vitamin B12 stability. Vit A consisted of a solution of mixed micelles with ascorbyl palmitate as a potential stability enhancer. […]
# Accordingly, mixed micelles solutions having smaller volumes (25 ml or 50 ml, see Table 9) were produced according to known methods. […] The mixed micelles solutions from Table 5 were then sterilized according to Cycles 1, 2, 3 and 4 as described before and the degradation of vitamin B12 during sterilization and subsequent storage was monitored as described before.
# [4] = Vitamin B12 stability in 20% lipid emulsion during sterilization and storage; conditions: for T1M40° C. concentration: 1 month at 40° C.; for T6M40° C. concentration: 6 months at 40° C., sum of cyanocobalamin and hydroxocobalamin
# Description: (§1) For testing the stability of vitamin B12 in formulation as they are typically used in parenteral nutrition, a 35% glucose solution, a 14.2% amino acid formulation such as found, for example, in Olimel N9E (Baxter), and a 20% lipid emulsion such as found in Clinoleic 20% (Baxter) were supplemented with different vitamin combinations which always included vitamin B12. KCl was added into the glucose solution to understand if it has an effect on the stability of vitamin B12. Vitamin B1 was introduced as thiamin HCl. Ascorbyl palmitate was added to the lipid emulsion formulation as a stabilizing agent due to its antioxidant properties. In addition, two separate micellar solutions (“Vit A” and “Vit B”, see Table 9) comprising certain vitamins to be assessed with regard to degradation (B3, B6, B8, B9, B12, C) but formulated with different excipients as micellization agents were tested for vitamin B12 stability. Vit A consisted of a solution of mixed micelles with ascorbyl palmitate as a potential stability enhancer. Vit B was formulated with a mix of polysorbates, PEG and sorbitol to form micelles. The micellar solutions were prepared by mixing, under high speed, a solution composed of glycocholic acid and lecithins dissolved in water. In case of Vit B, the glycocholic acid and lecithin were replaced by PEG and polysorbate. All formulations were provided in standard flexible containers and overpouched with an aluminum overpouch for subsequent sterilization. For an overview over formulations and conditions see Table 9.
# (§2) All samples were submitted to two different sterilization technologies. Steam sterilization targeting a F0=8 min was used for large volumes (400/800 ml, Cycle 2) and for small volumes (25/50 ml, Cycle 1) as lined out in Table 9 above. The same samples were sterilized by water spray sterilization with a serial tower continuous sterilization equipment with two different exposure times (Cycles 3 (25 min.) and 4 (19 min.)).
# (§3) The vitamin recovery was then compared between the different sterilization cycles and formulations to understand the impact of the formulation and the sterilization technology used on their respective short- and long-term stability. Therefore, after sterilization, the samples were stored at 40° C./25% RH for 6 months to evaluate the recovery of vitamin B12 at T1M, T3M and T6M. Besides, backup samples were stored at 5° C. Finally, some samples were also stored at 25° C./40% RH to provide for real time stability data.
# Vitamin B12 was also considerably degraded in the lipid emulsion (Tables 12 through 15). […] The instability of vitamin B12 in the standard lipid emulsions is probably linked to the presence of ascorbyl palmitate, which is generally present as an antioxidant. It should thus be avoided in formulations according to the invention.
# [5] = Vitamin stability in 35% glucose solution during sterilization and storage; conditions: 35% glucose solution; for T1M40° C. concentration: 1 month at 40° C.; for T3M40° C. concentration: 3 months at 40° C.; for T6M40° C. concentration: 6 months at 40° C., B12 value (*) is the sum of cyanocobalamin and hydroxocobalamin
# Description: as §1, §2, §3
# [6] = 25 ml, Cycle 1 steam sterilization
# [7] = 800 ml, Cycle 2 steam sterilization
# [8] = 800 ml, Cycle 3 water spray sterilization
# [9] = 800 ml, Cycle 4 water spray sterilization
substance,measurement,setting,value
cobalamin [Batch B12],vitamin B12 (cyanocobalamin plus hydroxocobalamin) recovered,"[1]; Batch 1: 5% olive oil emulsion, pH 7.0, C0=40 min",53.8%
same,vitamin B12 (cyanocobalamin plus hydroxocobalamin) recovered,"[1]; Batch 2: 5% olive oil emulsion, pH 5.9, C0=80 min",138%
same,stability of vitamin B12 in Batch 4,[2],remains stable up to T7M40 °C
same,degradation after sterilization and subsequent storage,[3],almost complete degradation
same,Unsterilized T0 concentration,[4]; 20% lipid emulsion (Table 14),0.014 mg/L
same,Unsterilized T0 concentration,[4]; 20% lipid emulsion (Table 15),0.014 mg/L
same,Unsterilized T0 concentration,[4]; 20% lipid emulsion with ascorbyl palmitate (Table 12),0.015 mg/L
same,T1M40° C. concentration,"[4]; 20% lipid emulsion, Cycle 1 steam sterilization",0.004 mg/L
same,T3M40° C. concentration,"[4]; 20% lipid emulsion, Cycle 1 steam sterilization, 3 months at 40° C.",<LOD
same,T1M40° C. concentration,"[4]; 20% lipid emulsion, Cycle 2 steam sterilization",<LOD
same,Cycle 2 T0 concentration,"[4]; 20% lipid emulsion, Cycle 2 steam sterilization, after sterilization",0.005 mg/L
same,T6M40° C. concentration,"[4]; 20% lipid emulsion, Cycle 3 water spray sterilization (Table 14)",0.0037* mg/L
same,Cycle 3 T0 concentration,"[4]; 20% lipid emulsion, Cycle 3 water spray sterilization (Table 14), after sterilization",0.005 mg/L
same,T6M40° C. concentration,"[4]; 20% lipid emulsion, water spray sterilization (Table 15, head: Cycle 3)",0.0055* mg/L
same,Cycle 3 T0 concentration,"[4]; 20% lipid emulsion, water spray sterilization with serial tower continuous sterilization equipment (Table 15, head: Cycle 3), after sterilization",0.006 mg/L
same,Unsterilized T0 concentration,[5]; 25 ml (Table 10A),0.0062 mg/L
same,T1M40° C. concentration,[5]; [6],0.0045 mg/L
same,T3M40° C. concentration,[5]; [6],0.0037 mg/L
same,Unsterilized T0 concentration,[5]; 800 ml (Table 10B),0.0062 mg/L
same,Unsterilized T0 concentration,[5]; 800 ml (Table 11A),0.006 mg/L
same,Unsterilized T0 concentration,[5]; 800 ml (Table 11B),0.006 mg/L
same,T1M40° C. concentration,[5]; [7],0.0040 mg/L
same,T3M40° C. concentration,[5]; [7],0.0036 mg/L
same,Cycle 3 T0 concentration,"[5]; 800 ml, Cycle 3 water spray sterilization, C0 = 25 minutes, after sterilization",0.0051 mg/L
same,T3M40° C. concentration,[5]; [8],0.0041 mg/L
same,T6M40° C. concentration,[5]; [8],0.0023* mg/L
same,Cycle 4 T0 concentration,"[5]; 800 ml, Cycle 4 water spray sterilization, C0 = 19 minutes, after sterilization",0.0052 mg/L
same,T3M40° C. concentration,[5]; [9],0.0041 mg/L
same,T6M40° C. concentration,[5]; [9],0.0031* mg/L
